Experimental data from patent US20240345008A1 (Eth Zurich, priority 2021, published 2024).
Values belong to the molecule of their own block, whether it stands above or below them. No end group written: not given here.

Columns and labels:
K-Ras protein = K-Ras protein (Homo sapiens, UniProt P01116); experiment: photo-CIDNP enhanced NMR ligand-target binding with spinlock, small molecules vs K-Ras protein; conditions: 500 μM ligand, 25 μM fluorescein, 100 μM K-Ras, 450 nm, 1 W, 2 s, spinlock 200 ms
[1] = molecular target: PIN1 protein (peptidyl-prolyl cis-trans isomerase NIMA-interacting 1) (Homo sapiens, UniProt Q13526); experiment: photo-CIDNP enhanced NMR ligand-target binding, small molecules vs PIN1 protein; conditions: 100 μM ligand, 25 μM fluorescein, 50 μM PIN1 (ligand 3-4: 25 μM ligand, 15 μM fluorescein, 25 μM PIN1), 450 nm, 1 W, 2 s
PIN1 protein = PIN1 protein (Homo sapiens, UniProt Q13526); experiment: prior knowledge / verification of PIN1 binding (Potter et al. 2010; verification); conditions: method of verification not stated
PDZ protein domain [2] = experiment: photo-CIDNP enhanced NMR ligand-target binding, peptides vs PDZ protein domain (sample A vs B); conditions: 100 μM peptide, 25 μM fluorescein, PDZ 100 μM, 450 nm, 1 W, 4 s, no spin lock
PDZ protein domain [3] = experiment: photo-CIDNP NMR titration for dissociation constant of peptide ligand to PDZ protein domain; assay type: binding; conditions: 47 μM peptide, 25 μM fluorescein, series of PDZ concentrations and irradiation times, 450 nm, fit of equations (7) and (6)
PDZ protein domain [4] = experiment: photo-CIDNP enhanced 1H NMR titration, 47 µM peptide against a series of PDZ domain concentrations, fit of equations (7) and (6)

Chain of PIN1 protein (peptidyl-prolyl cis-trans isomerase NIMA-interacting 1) (Q13526 whole entry, species assumed): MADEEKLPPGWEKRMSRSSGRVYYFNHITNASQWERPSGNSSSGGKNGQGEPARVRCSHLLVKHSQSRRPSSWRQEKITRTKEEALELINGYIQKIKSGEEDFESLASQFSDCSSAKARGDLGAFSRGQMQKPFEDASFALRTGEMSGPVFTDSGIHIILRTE
Chain of PIN1 protein (Q13526 whole entry, species assumed, the tested form may be a part): as the sequence (Q13526 whole entry, species assumed) above

Molecule: O=C1NCCCc2c1oc1ccc(O)cc21 [ligand 3-4, 4-hydroxy-8-oxa-11-azatricyclo[7.5.0.0^2,7]tetradeca-1 (9),2,4,6-tetraen-10-one]
binding to the target PIN1 (signal modified in presence of target) [1]: bound to the target PIN1

Molecule: O=C(O)Cc1c[nH]c2ccccc12 [ligand 4-4, indoleacetic acid]
binding to the target K-Ras (signal modified in presence of target) (K-Ras protein): did not bind

Molecule: WEQLT (Peptide 3)
binding to the target PDZ (signal modified in presence of target) (PDZ protein domain [2]): did not bind

Molecule: WVSAV [Peptide 1]
binding to the target PDZ (signal modified in presence of target) (PDZ protein domain [2]): binding to the target PDZ
Kd (PDZ protein domain [3]): 7 µM

Molecule: WVSAV-NH2 [Peptide 4]
binding to the target PDZ (signal modified in presence of target) (PDZ protein domain [2]): did not bind

Molecule: WVSAV [Peptide 1 (WVSAV)]
Kd (PDZ protein domain [4]): 7 µM

Further lines, results first:

binding to the target K-Ras (signal modified in presence of target) (K-Ras protein): bound to the target K-Ras
Molecule: 5 N-(Furan-2-ylmethyl)-1H-benzimidazol-2-amine)-imidazole-4-carboxylic acid [ligand 4-1]

binding to the target PIN1 (signal modified in presence of target) [1]: bound to the target PIN1
Molecule: Cc1cccc(-c2nc(C(=O)O)c(C)[nH]2)c1 [ligand 3-1, 5-methyl-2-(3-methylphenyl)-imidazole-4-carboxylic acid]

binding to the target PIN1 (signal modified in presence of target) [1]: bound to the target PIN1
Molecule: Cc1ccc2[nH]cc(C(=O)O)c2c1 [ligand 3-2, 5-methyl-indole-3-carboxylic acid]

verification of binding to PIN1 (PIN1 protein): verified to not bind to PIN1
binding to the target PIN1 (signal modified in presence of target) [1]: did not bind
Molecule: N[C@@H](Cc1c[nH]c2ccccc12)C(=O)O [ligand 3-3, tryptophan]

binding to the target K-Ras (signal modified in presence of target) (K-Ras protein): bound to the target K-Ras
Molecule: COc1ccc(C)cc1NC(=O)Nn1cnnc1 [ligand 4-3, N-(2-methoxy-5-methylphenyl)-N′-4H-1,2,4-triazol-4-ylurea]
